Experiment: xn = mol fraction of the nth substance listed
Conditions: 100 kPa, Liquid; for viscosity: Concentric cylinders viscometry; for mass density: Vibrating tube method

CCCCn1cc[n+](C)c1.N#C[S-] [1-butyl-3-methylimidazolium thiocyanate] + CCCC[n+]1ccn(C)c1.O=S(=O)([N-]S(=O)(=O)C(F)(F)F)C(F)(F)F
Conditions | mass density, x2 = 0 [kg/m3] | mass density, x2 = 0.25 [kg/m3] | mass density, x2 = 0.5 [kg/m3] | mass density, x2 = 0.748 [kg/m3] | viscosity, x2 = 0 [mPa·s] | viscosity, x2 = 0.25 [mPa·s] | viscosity, x2 = 0.5 [mPa·s] | viscosity, x2 = 0.748 [mPa·s]
283.15 K | 1079.2 | 1206.2 | 1305.3 | 1385.3 | 139.54 | 133.49 | 124.13 | 115.12
288.15 K | 1076.2 | 1202.6 | 1301.2 | 1380.7 | 104.51 | 101.08 | 94.68 | 88.29
293.15 K | 1073.2 | 1199 | 1297.1 | 1376.2 | 82.91 | 80.92 | 76.17 | 71.22
298.15 K | 1070.2 | 1195.4 | 1293.1 | 1371.7 | 62.63 | 61.69 | 58.5 | 55.06
303.15 K | 1067.2 | 1191.8 | 1289 | 1367.3 | 49.94 | 49.55 | 47.23 | 44.62
308.15 K | 1064.2 | 1188.3 | 1285 | 1362.8 | 40.48 | 40.42 | 38.7 | 36.7
313.15 K | 1061.3 | 1184.7 | 1281 | 1358.4 | 34.08 | 34.22 | 32.85 | 31.22
318.15 K | 1058.4 | 1181.2 | 1277.1 | 1354 | 27.8 | 28.05 | 27.03 | 25.81
323.15 K | 1055.5 | 1177.7 | 1273.1 | 1349.7 | 23.49 | 23.79 | 22.97 | 22.01
328.15 K | 1052.6 | 1174.3 | 1269.2 | 1345.3 | 20.06 | 20.39 | 19.74 | 18.96
333.15 K | 1049.8 | 1170.8 | 1265.3 | 1341 | 17.58 | 17.91 | 17.36 | 16.7
338.15 K | 1047 | 1167.4 | 1261.5 | 1336.7 | 15.08 | 15.38 | 14.94 | 14.44
343.15 K | 1044.1 | 1164 | 1257.6 | 1332.4 | 13.24 | 13.54 | 13.16 | 12.74
348.15 K | 1041.4 | 1160.6 | 1253.8 | 1328.1 | 11.71 | 12 | 11.67 | 11.33
353.15 K | 1038.6 | 1157.3 | 1250 | 1323.9 | 10.67 | 10.92 | 10.65 | 10.36
358.15 K | 1035.8 | 1154 | 1246.2 | 1319.7 | 9.355 | 9.577 | 9.351 | 9.114
363.15 K | 1033.1 | 1150.7 | 1242.4 | 1315.5 | 8.436 | 8.621 | 8.44 | 8.242

From the NIST ThermoML archive (doi:10.1021/acs.jced.6b00178)
